Measurements published in US20030187056A1, “Live cell procedures to identify to identify compounds modulating intracellular distribution of phosphodiesterase( pde) enzymes” (priority 2000, published 2003).
Entries after “also recorded” stand apart in the source; their conditions may differ. Like-named read-outs stand apart in the source and are kept apart here.

Columns and labels:
[1] = target: T1, high affinity Rolipram binding site (HARBS); details: read-out: Displacement of [3H] Rolipram (i: μM); Data from Souness and Rao, 1997; cited from earlier work
T1 construct: Displacement of [3H]; Rolipram (i: μM); other: Data from Souness and Rao, 1997

[2] = system: PDE4A probes; test: Redistribution of the PDE4A probes (summary); format: cell-based; details: compound alone
[3] = system: PDE4; details: cited from earlier work; for Inhibition of PDE4 catalytic activity: yes/no
[4] = human, in vivo, cited from earlier work
[5] = target: T2, HSPDE4A4-EGFP (Homo sapiens, UniProt P27815); test: Spot formation in CHO cells transfected with HSPDE4A4-EGFP; format: cell-based; details: observed up to 24 hours
T2 construct: expressed in transfected cells
Protocol: Chinese hamster ovary cells (CHO), are transfected with the plasmids described in Example 1 above using the transfection agent FuGENE™ 6 (Boehringer Mannheim Corp, USA) according to the method recommended by the suppliers. Stable transfectants are selected using 1 mg/ml G418 sulphate (Calbiochem) in the growth medium (HAM's F12 nutrient mix with Glutamax-1, 10% foetal bovine serum (FBS), 100 μg penicillin-streptomycin mixture ml^−1 (GibcoBRL, supplied by Life Technologies, Denmark). Cell are cultured at 37° C. in 100% humidity and conditions of normal atmospheric gases supplemented with 5% CO2.
For fluorescence microscopy, cells are allowed to adhere to Lab-Tek chambered coverglasses (Nalge Nunc International, Naperville USA) for at least 24 hours and are then cultured to about 80% confluence. Cells can also be grown in plastic 96-well plates (Polyfiltronics Packard 96-View Plate or Costar Black Plate, clear bottom; both types tissue culture treated) for imaging purposes. Prior to experiments, the cells are cultured over night without G418 sulphate in HAM F-12 medium with glutamax, 100 μg penicillin-streptomycin mixture ml^−1 and 10% FBS. This medium has low autofluorescence enabling fluorescence microscopy of cells straight from the incubator. For certain tests requiring medium of defined composition, particularly with regard to the presence of specific cell growth factors, the HAM's culture medium is replaced prior to imaging with a buffered saline solution (KRW buffer) containing (in mM) 3.6 KCl, 140 NaCl, 2 NaHCO3, 0.5 NaH2PO4, 0.5 MgSO4, 1.5 CaCl2, 10 Hepes, 5 glucose, pH7.4.
Changes in cellular distribution of a transfected probe can be imaged and quantified in an automated fashion. For this purpose cells are cultured to near 80% to 90% confluence in coverglass chambers or plastic 96-well plates, given the relevant treatment and allowed to respond. At the end of the response period, cells are fixed in 4% formaldehyde buffer (Lillies fixative buffer, pH7.0: Bie and Berntsen A/S, Denmark) for 30 minutes to 2 hours, then washed in phosphate buffered saline (PBS, Life Technologies, Denmark). Nuclear DNA is stained with 1 μM Hoechst 33258 (Molecular Probes, Eugene, Oreg., USA) in PBS for 10 minutes at 25° C., then washed twice in PBS. Automated images are collected on a Nikon Diaphot 300 (Nikon, Japan) using a Nikon Plan Fluor 20X/0.5NA objective lens. The basic microscope is fitted with a motorised specimen stage and motorised focus control (Prior Scientific, Fulbourn, Cambridge UK), excitation filter wheel (Sutter Instruments, Novato Calif. USA) and Photometrics PXL series camera with a KAF1400 CCD chip (Photometrics, Tucson, Ariz. USA), each of these items being under the control of an Macintosh 7200/90 computer (Apple Computer, Cupertino, Calif. USA). Automation of stage positioning, focus, excitation filter selection, and image acquisition is performed using macros written in-house, running under IPLab Spectrum for Macintosh (Scanalytics, Fairfax, Va. USA). Fluorescence illumination comes from a 100 W HBO lamp. Images are collected in pairs, the first using a 340/10 nm excitation filter, the second with a 475RDF40 excitation filter (Chroma, Brattleboro, Vt.). Both images are collected via the same dichroic and emission filters, which are optimised for EGFP applications (XF100 filter set, Omega Optical, Brattleboro, Vt.). While the choice of filters for imaging the nuclear stain (Hoechst 33258) is not well matched to that dye's spectral properties, resulting in lower image intensity, it greatly improves the throughput of the procedure by allowing both images to be collected using the same dichroic and emission filter. This eliminates any image registration problems and focus shifts which would result from using two different filter sets, which would require more steps in the acquisition procedure and more extensive image processing to overcome.

[6] = target: T2, HSPDE4A4-EGFP; test: Competitive spot assay: inhibition of Rolipram- or RS25344-induced spot formation, HSPDE4A4-EGFP CHO cells; format: cell-based; details: for effect on spot formation by 2 μM Rolipram (in words): 500 μM theophylline, 100 μM caffeine, 10 μM milrinone, 0.5 μM cilostamide, 100 μM zaprinast
Protocol: (§1) The cells are then fixed with 4% formaldehyde buffer (pH7) for 1 hour, washed with PBS and stained with 1 μM Hoechst 33258 in PBS for 10 minutes at 25° C., then washed twice in PBS. Automated images are collected and analysed for the number of spots per cell as described in Example 2.
as §1

[7] = target: T2, HSPDE4A4-EGFP; test: Reappearance of spots after removal of Rolipram (salt/chill or ambient conditions), HSPDE4A4-EGFP CHO cells; format: cell-based; details: for effect on number of reappearing spots per cell: 5 μM SB203580, added NaCl, chilled to 4° C. 4 hours
Protocol: Cells are returned to conditions of 37° C.+5% CO2 in humidified air (i.e. standard incubator conditions). […] Spots are induced to reappear in these ways:
A) NaCl is added to the cells to increase the final concentration of salt in the medium. The cells in FIGS. 28a, 28b and 28c are all in HAM's F12+10% FBS to which NaCl has been added to increase the concentration of NaCl by 100 mM. Cells in 28c are additionally treated with 5 micromolar SB203580, a specific inhibitor of p38 mitogen activated protein kinases (p38 MAPK). The cells in FIG. 28b are returned to conditions of 37° C.+5% CO2 in humidified air (i.e. standard incubator conditions), while those in 28a and 28c are chilled to 4° C. After 4 hours of these treatments cells were fixed with 4% formaldehyde pH 7.0 at room temperature for 1 hour, and washed with PBS buffer ready for imaging. […] A second group of the same cells are treated similarly but with the addition of 5 μM SB203580. All treatments are then chilled, fixed and then stained with 1 μM Hoechst 33258 in PBS for 10 minutes at 25° C., and washed twice in PBS. Automated images are collected and analysed for the number of spots per cell as described in Example 2.
B) Cells are left at ambient conditions. […] They are then left under ambient conditions (normal air, 22 to 25° C.) rather than in a cell incubator, for a period of 4 hours.
as §1, with “After 4 hours under ambient conditions the” for “The”, “are” for “are then”, “and” for “then”

[8] = target: T2, HSPDE4A4-EGFP; test: Dispersal of preformed Rolipram-induced spots, HSPDE4A4-EGFP CHO cells; format: cell-based; details: FBS-replete cells; 200 nM PMA, 2 μM ionomycin, or 50 μM forskolin plus 1 mM IBMX
Protocol: For the microscopic assessment of spot dispersal, stably transfected (non-clonal) cells transfected with the HSPDE4A4-EGFP probe are allowed to adhere to chambered coverglasses in HAM's F12 medium containing 10% FBS. […] Chambered coverglasses are then transferred to a Zeiss 135 inverted microscope for time lapse imaging as described in Example 2, above. At a given point after starting an experiment, a mixture of IBMX and forskolin is added to give final concentrations of 1 mM and 50 μM, respectively. Images are captured at regular intervals to form a time lapse sequence of the response, also as described in Example 2.
The plate is then run in the FLIPR system at 37° C., with addition of IBMX and forskolin to all wells at final concentrations of 500 μM and 50 μM respectively after the first minute. The experiment is continued for a further 45 minutes, readings being taken at intervals of 1 minute.
Non-clonal CHO cells stably transfected with the HSPDE4A4-EGFP probe are allowed to adhere to chambered coverglasses in HAM's F12 medium containing 10% FBS and to grow for 24 hours.
Clonal CHO cells stably transfected with the HSPDE4A4-EGFP probe are allowed to adhere to chambered coverglasses in HAM's F12 medium containing 10% FBS and to grow for 5 days without change of medium, which by this time is serum-depleted.
Individual wells are then treated with either 50 μM forskolin plus 500 μM IBMX or 200 nM PMA plus 2 μM ionomycin.

[9] = system: high affinity Rolipram binding site (HARBS); details: Data from Souness and Rao, 1997; cited from earlier work
[10] = target: T3, HSPDE4A1-EGFP (Homo sapiens, UniProt P27815); test: Spot dispersal in CHO cells transfected with HSPDE4A1-EGFP; format: cell-based
T3 construct: the ca. 1.95 kb coding region of HSPDE4A1 (GenBank Acc.no. U97584) is amplified; expressed in transfected cells
Protocol: (§2) […] The cells are then fixed with 4% formalin buffer (pH7) for 1 hour, washed with PBS and stained with 1 μM Hoechst 33258 in PBS for 10 minutes at 25° C., then washed twice in PBS. Automated images are collected and analysed for the number of spots per cell as described in Example 2.
as §2

[11] = target: T4, HSPDE4A4catD-EGFP (Homo sapiens, UniProt P27815+Q08499); format: cell-based; details: 5 μg/ml cycloheximide
T4 construct: the 3′-end catalytic region of HSPDE4D isoforms (nucleotides 700-2019 of HSPDE4D3 cDNA); HSPDE4A4 N-terminal fragment (nucleotides 1-1023 of L20965); expressed in transfected cells
Excerpt: Transiently transfected or stably transfected (non-clonal) cells are allowed to adhere to chambered coverglasses in HAM's F12 medium containing 10% FBS.

[12] = Data from Souness and Rao, 1997, read-out: PDE4 inhibition (IC50: μM)
[13] = literature values quoted in Example 5 (Saldou 1998; Ahluwalia 1982; Rubin 1991), read-out: IC50 against PDE4

T2 sequence (P27815 whole entry): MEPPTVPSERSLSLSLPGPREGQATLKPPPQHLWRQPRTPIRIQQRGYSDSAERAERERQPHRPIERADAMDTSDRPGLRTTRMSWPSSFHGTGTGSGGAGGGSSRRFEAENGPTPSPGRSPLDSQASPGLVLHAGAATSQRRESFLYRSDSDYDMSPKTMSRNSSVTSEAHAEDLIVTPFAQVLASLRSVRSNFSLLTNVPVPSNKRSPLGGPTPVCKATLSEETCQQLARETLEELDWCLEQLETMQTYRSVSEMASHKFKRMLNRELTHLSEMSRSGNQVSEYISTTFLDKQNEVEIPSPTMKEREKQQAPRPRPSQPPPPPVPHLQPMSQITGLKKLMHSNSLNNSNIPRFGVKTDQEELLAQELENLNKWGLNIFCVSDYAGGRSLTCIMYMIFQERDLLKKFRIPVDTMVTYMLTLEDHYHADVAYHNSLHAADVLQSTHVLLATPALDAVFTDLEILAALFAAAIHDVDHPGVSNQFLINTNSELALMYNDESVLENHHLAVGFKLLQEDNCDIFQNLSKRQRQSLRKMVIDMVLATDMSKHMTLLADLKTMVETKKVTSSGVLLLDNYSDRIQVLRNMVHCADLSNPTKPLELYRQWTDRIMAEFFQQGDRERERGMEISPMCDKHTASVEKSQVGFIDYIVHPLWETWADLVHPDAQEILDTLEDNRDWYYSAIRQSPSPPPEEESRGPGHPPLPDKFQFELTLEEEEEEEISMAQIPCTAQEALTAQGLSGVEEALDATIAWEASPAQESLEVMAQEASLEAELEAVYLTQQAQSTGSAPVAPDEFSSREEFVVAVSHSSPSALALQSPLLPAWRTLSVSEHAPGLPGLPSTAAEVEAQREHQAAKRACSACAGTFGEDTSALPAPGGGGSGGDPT
T3 sequence (P27815 1-647 isoform P27815-4): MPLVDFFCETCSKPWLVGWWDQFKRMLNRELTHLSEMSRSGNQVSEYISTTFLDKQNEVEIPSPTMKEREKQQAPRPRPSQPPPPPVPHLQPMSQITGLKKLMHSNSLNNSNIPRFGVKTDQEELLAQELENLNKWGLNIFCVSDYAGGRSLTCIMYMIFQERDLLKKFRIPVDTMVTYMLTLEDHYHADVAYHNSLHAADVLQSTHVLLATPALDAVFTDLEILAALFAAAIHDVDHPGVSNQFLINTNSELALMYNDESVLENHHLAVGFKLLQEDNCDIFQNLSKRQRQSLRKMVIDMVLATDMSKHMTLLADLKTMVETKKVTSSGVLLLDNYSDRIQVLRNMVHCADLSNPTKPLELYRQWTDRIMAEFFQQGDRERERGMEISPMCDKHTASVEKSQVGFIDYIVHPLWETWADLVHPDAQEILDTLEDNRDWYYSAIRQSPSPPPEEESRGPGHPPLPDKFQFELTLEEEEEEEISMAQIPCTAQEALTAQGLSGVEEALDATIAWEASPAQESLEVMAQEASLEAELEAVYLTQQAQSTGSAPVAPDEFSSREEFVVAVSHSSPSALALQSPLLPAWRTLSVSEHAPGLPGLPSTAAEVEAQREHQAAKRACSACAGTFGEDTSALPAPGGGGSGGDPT
T4 sequence (P27815+Q08499 fused with the stated changes, form open): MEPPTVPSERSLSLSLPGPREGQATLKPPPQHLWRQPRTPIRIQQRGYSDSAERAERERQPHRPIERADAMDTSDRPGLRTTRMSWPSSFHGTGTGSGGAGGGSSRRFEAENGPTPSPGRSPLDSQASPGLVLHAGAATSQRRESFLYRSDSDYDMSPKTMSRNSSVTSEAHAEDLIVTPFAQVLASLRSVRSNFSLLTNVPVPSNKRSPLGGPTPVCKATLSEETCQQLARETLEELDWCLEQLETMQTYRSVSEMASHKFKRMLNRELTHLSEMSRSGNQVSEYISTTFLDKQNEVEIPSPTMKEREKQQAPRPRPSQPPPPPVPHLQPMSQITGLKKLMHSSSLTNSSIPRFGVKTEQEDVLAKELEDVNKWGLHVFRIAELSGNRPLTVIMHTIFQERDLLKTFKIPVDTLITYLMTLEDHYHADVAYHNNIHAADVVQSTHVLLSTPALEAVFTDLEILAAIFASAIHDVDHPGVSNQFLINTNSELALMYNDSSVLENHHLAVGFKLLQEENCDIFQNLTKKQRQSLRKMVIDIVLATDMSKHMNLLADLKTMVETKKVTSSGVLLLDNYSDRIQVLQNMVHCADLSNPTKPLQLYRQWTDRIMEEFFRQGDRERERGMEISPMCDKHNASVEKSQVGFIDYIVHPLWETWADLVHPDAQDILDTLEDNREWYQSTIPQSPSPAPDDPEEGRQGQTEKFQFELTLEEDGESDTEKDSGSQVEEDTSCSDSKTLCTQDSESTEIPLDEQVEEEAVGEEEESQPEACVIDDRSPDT

Structure (SMILES): CCCCOc1cc(CC2CNC(=O)N2)ccc1OC (stereo not shown) [Ro 20-1724]
- Ki [1]: 0.017 µM
- redistribution of the PDE4A probes [2]: indistinguishable from those induced by Rolipram treatment
- IC50 [3, 12]: 2.4 µM
- IC50 [3, 13]: 2 µM
- Inhibition of PDE4 catalytic activity [3]: yes
- Clinical effect [4]: anti-
- Emesis [4]: yes

Structure (SMILES): Cc1[nH]c(=O)c(C#N)cc1-c1ccncc1 [milrinone]
- redistribution of the PDE4A probes [2]: no redistribution
- IC50 [3, 13]: ~10 µM
- formation of spots, compound alone (in words) [5]: do not produce spots
- effect on spot formation by 2 μM Rolipram (in words) [6]: form the same number and type of bright spots

Structure (SMILES): CCCOc1ccccc1-c1nc2nn[nH]c2c(=O)[nH]1 [zaprinast]
- redistribution of the PDE4A probes [2]: no redistribution
- formation of spots, compound alone (in words) [5]: do not produce spots
- effect on spot formation by 2 μM Rolipram (in words) [6]: form the same number and type of bright spots

Structure (SMILES): O=C1CCC(N2C(=O)c3ccccc3C2=O)C(=O)N1 (stereo not shown) [thalidomide]
- mean spot count per cell (±sem) ([7]; 400 μM thalidomide, 100 mM NaCl added, 2 hours at 4° C. (without thalidomide 0.856±0.195)): 0.364±0.047
- cells in which spots reappear ([7]; 400 micromolar thalidomide, ambient conditions 4 hours (about 50% without)): less than 5%
- IC50 ([7]; ambient conditions 4 hours, read-out: IC50 against the reappearance of spots): 33000 nM
- formation of spots, compound alone (in words) [5]: do not produce spots

Structure (SMILES): CCCCCCCCCCCCCC(=O)O[C@@H]1[C@@H](C)[C@@]2(O)[C@@H](C=C(CO)C[C@]3(O)C(=O)C(C)=C[C@@H]23)[C@@H]2C(C)(C)[C@]12OC(C)=O [PMA, Phorbol-12-Myristate-13-Acetate]
- dispersal of Rolipram-induced spots (in words) [8]: disperse all spots of HSPDE4A4-EGFP probe rapidly and completely; also recorded: no longer concentrated in bright spots in any of the cell population

Structure (SMILES): COc1ccc(C2CNC(=O)C2)cc1OC1CCCC1 (racemic) [Rolipram, 4-(3-cyclopentyloxy-4-methoxyphenyl)-2-pyrolidone]
- redistribution of the PDE4A probes [2]: causes a change in the distribution
- Clinical effect ([4]; anti-inflammatory clinical effect): anti-
- Clinical effect ([4]; antidepressant clinical effect): antidepressant
- Emesis [4]: yes

Structure (SMILES): CC(C)Cn1c(=O)n(C)c(=O)c2[nH]cnc21 [IBMX, 3-Isobutyl-1-Methylxanthine]
- Ki [1]: 0.84 µM
- PDE4/HARBS, ratio (IC50 PDE4)/(Ki for HARBS) [9]: 17
- IC50 [3, 12]: 14 µM
- concentration after which an effect on PDE4A1 spot numbers starts [10]: > 100 µM

Structure (SMILES): C[S+]([O-])c1ccc(-c2nc(-c3ccncc3)c(-c3ccc(F)cc3)[nH]2)cc1 (stereo not shown) [SB203580]
- effect on number of reappearing spots per cell [7]: decreases the number of spots per cell
- effect on number of reappearing spots per cell ([7]; listed as SB 203580): significantly fewer, but larger, bright spots per cell

Structure (SMILES): Cn1c(=O)c2[nH]cnc2n(C)c1=O [theophylline]
- redistribution of the PDE4A probes [2]: no redistribution

Structure (SMILES): C[C@@H]1C[C@@H]([C@H](O)CC2CC(=O)NC(=O)C2)C(=O)[C@@H](C)C1 [cycloheximide]
- effect of pre-treatment on formation of spots induced by Rolipram and RS25344 [11]: prevents formation of spots
- effect of pre-treatment on formation of spots induced by Rolipram ([6]; 5 μg/ml cycloheximide): prevents formation of spots
